# Legend:
# [1] = target: T1, Epac2(B) (Homo sapiens, UniProt Q8WZA2); assay: In vitro GEF activity (initial velocity of GDP exchange on Rap1A) of Epac2(B); type: biochemical
# T1 construct: Human Epac2(B) (amino acids 283-1011) lacks the first 283 amino acids of Epac2; made in house; host or cells: Escherichia coli Rosetta 2(DE3)
# T1 sequence (Q8WZA2 283-1011): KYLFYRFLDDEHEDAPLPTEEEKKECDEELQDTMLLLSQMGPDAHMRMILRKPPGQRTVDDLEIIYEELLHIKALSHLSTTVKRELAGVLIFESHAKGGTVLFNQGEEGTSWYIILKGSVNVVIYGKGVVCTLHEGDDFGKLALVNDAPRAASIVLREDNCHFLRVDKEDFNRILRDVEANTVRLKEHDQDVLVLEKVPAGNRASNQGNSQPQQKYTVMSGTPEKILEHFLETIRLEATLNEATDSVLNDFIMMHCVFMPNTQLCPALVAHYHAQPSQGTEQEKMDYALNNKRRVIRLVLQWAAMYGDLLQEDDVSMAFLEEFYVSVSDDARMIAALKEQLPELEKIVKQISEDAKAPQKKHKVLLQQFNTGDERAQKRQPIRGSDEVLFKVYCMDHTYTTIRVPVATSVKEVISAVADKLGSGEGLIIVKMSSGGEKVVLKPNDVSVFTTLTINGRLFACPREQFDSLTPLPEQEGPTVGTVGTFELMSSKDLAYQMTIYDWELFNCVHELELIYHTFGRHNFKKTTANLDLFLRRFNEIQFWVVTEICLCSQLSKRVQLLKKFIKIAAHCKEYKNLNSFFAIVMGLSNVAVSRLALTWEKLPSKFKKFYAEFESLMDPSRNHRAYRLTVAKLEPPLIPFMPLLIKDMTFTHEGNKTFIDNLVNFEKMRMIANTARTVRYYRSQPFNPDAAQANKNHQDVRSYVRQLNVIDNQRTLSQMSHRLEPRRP
# Source text: Human Epac2(AB) (amino acids 43-1011) carries both the CNB-A and the CNB-B domains. Human Epac2(B) (amino acids 283-1011) lacks the first 283 amino acids of Epac2. It is therefore deleted of its CNB-A and DEP domains, but retains the CNB-B domain and the full catalytic region. Epac2(AB) was obtained by HindIII/NotI restriction and Epac2(B) was obtained by Ssp1/Not1 restriction of a human Epac2A cDNA (a gift from Ann M Graybiel, Department of Brain and Cognitive Sciences, MIT, Cambridge). Both cDNA fragments were inserted into pET41a (Novagen), expressed in Escherichia coli Rosetta 2(DE3) (Novagen), and the GST-tagged fusion proteins were purified by nickel-nitrilotriacetic acid beads (Qiagen), as described in D. Courilleau, et al., Identification of a tetrahydroquinoline analog as a pharmacological inhibitor of the cAMP-binding protein Epac, J. Biol. Chem. 287 (2012) 44192-44202).
# In vitro GDP exchange catalyzed by Epac was measured using purified recombinant Epac isoforms and Rap1A loaded with Bodipy-GDP, as described in D. Courilleau, et al (above mentioned). The GEF activity of Epac proteins was initiated by injection of the agonist. Stock solutions of CE3F4 and its analogs (12 mM in 100% DMSO) were kept at −20° C. and were diluted in assay buffer (0.67% final DMSO concentration) just before use for GDP exchange assays. The release of Bodipy-GDP was measured in real time as the decay of fluorescence. A single exponential was fit to the time-course data using the Graphpad Prism program. The initial velocity (Vi) of GDP exchange on Rap1 was calculated as described in D. Courilleau et al.).
# Data are expressed as mean±S.D. Differences in quantitative variables were examined by unpaired one- or two-tailed Student's t test. EC50 and IC50 values were computed according to a four-parameters dose-response model and compared on the basis of the extra sum-of square F test, using Graphpad Prism. Two-tailed Wilcoxon matched-pair signed rank tests were performed using GraphPad Prism.
# [2] = system: Epac1-induced Rap1 activation in HEK293 cells; assay: Epac1-induced Rap1 activation, Rap1-GTP pull-down in HEK293 cells; type: cell-based; conditions: 10 min
# Procedure: HEK293 cells were transfected with either pcDNA3 control vector or Epac1 (see FIG. 2A).
# HEK293 cells were transfected with Epac1 and 24 h after transfection, cells were preincubated or not with CE3F4 for 30 min and were then treated or not with Sp-007 (10 μM) for 10 min (see FIG. 2B).
# HEK293 cells overexpressing β1AR (Beta-1 adrenergic receptors) and transfected with Epac1 were pretreated or not with CE3F4 and stimulated or not with Iso (10 μM) for 10 min (see FIG. 2C).
# Amounts of Rap1-GTP were determined by pull-down assays (see Material and Methods). The bar graph represents the mean±S.E.M. of 5 (FIG. 2A, 2B) or 3 (FIG. 2C) independent experiments. Results are expressed as the percentage of unstimulated control cells.
# Ras and Rap1 pull-down experiments were performed using a GST fusion protein containing respectively the Ras binding domain of Raf1-RBD and the Rap1 binding domain of Ral-GDS as previously described (Métrich et al., 2008). Cells were starved for 1 h before stimulation in MEM free with penicillin-streptomycin (1%). After stimulation, cells were lysed in RIPA buffer (50 mM Tris-HCl, pH 7.5; 500 mM NaCl; 20 mM MgCl2; 0.5% deoxycholic acid; 0.1% SDS; 1% Triton X-100; 1 mM PMSF; protease and phosphatase inhibitors) and 500 μg of protein were incubated with either GST-Raf1-RBD (for Ras) or Ral-GDS (for Rap1) coupled to glutathione-Sepharose beads (Amersham Biosciences) for 1h at 4° C. Beads were then washed three times in washing buffer (50 mM Tris-HCl, pH 7.5; 150 mM NaCl, 20 mM MgCl2, 1% Triton X-100; 0.1 mM PMSF; protease and phosphatase inhibitors). Rap1-GTP or Ras samples and corresponding total lysates were separated on SDS-PAGE gels and transferred onto a polyvinylidene difluoride (PVDF) membrane (Amersham Pharmacia Biotech).
smiles,measurement,setting,value
CC1CCc2c(cc(Br)c(F)c2Br)N1C=O (racemic) [CE3F4],"Inhibitory effect on GEF activity of Epac2(B), compared with Epac2(AB)","[1]; 50 μM racemic CE3F4, agonist 50 μM 007 or 300 μM cAMP, FIG. 6A",no significant difference
same,IC50,[1]; Epac2(B) activated by 300 μM cAMP,66 µM
same,Antagonism of cAMP-activated Epac2(B) GEF activity,"[1]; compound 30 μM, 300 μM cAMP, FIG. 6C",stronger antagonist
same,Effect on increase in amount of Rap1-GTP following Sp-007 treatment,"[2]; CE3F4 20 μM, 30 min preincubation, Sp-007 10 μM, HEK293 transfected with Epac1, FIG. 2B",prevented the increase
same,Effect on Epac1-induced Rap1 activation following β1-AR stimulation by isoprenaline,"[2]; Iso 10 μM, HEK293 overexpressing β1AR, transfected with Epac1, FIG. 2C",decreased

# Reference: patent US10093627B2, “Tetrahydroquinoline derivatives and their use as Epac inhibitors” (Institut National de la Sante et de la Recherche Medicale …, priority 2012, dated 2018)
